In patent US11555014B2, “High penetration prodrug compositions of prostaglandins and related compounds” (Techfields Pharma Co., Ltd., priority 2006, dated 2023):

Assay: In vitro penetration rate across isolated human skin in modified Franz cells
Conditions: 10% solution in pH 7.4 phosphate buffer (0.2 M), n=5
Experimental: The penetration rates of HPPs and their parent drugs through human skin were measured in vitro by modified Franz cells. The Franz cells have two chambers, the top sample chamber and the bottom receiving chamber. The human skin tissue (360-400 μm thick) that separates the top and the receiving chambers was isolated from the anterior or posterior thigh areas.
The compound tested (2 mL, 20% in 0.2 M phosphate buffer, pH. 7.4) were added to the sample chamber of a Franz cell. The receiving chamber contains 10 ml of 2% bovine serum albumin in saline which was stirred at 600 rpm. The cumulative amounts of the tested compounds penetrating the skin versus time were determined by high-performance liquid chromatography (HPLC) method.

In vitro penetration rate (apparent flux), prodrug compounds	SMILES
1.11 mg/cm^2/h	CC(=O)O.CCCCCC(O)C=C[C@H]1C(O)CC2OC(=CCCCC(=O)OCCN(CC)CC)C[C@@H]21 (some centres unmarked) [N,N-diethylaminoethyl 6,9-epoxy-11,15-dihydroxyprosta-5,13-dien-1-oate•AcOH]
0.81 mg/cm^2/h	CC(=O)O.CCN(CC)CCOC(=O)CCC=C=CCC1C(O)CC(O)C1C=CC(O)COc1ccccc1 (centres unmarked) [N,N-diethylaminoethyl 7-[3,5-dihydroxy-2-(3-hydroxy-4-phenoxy-1-butenyl)cyclopentyl]-4,5-heptadien-1-oate•AcOH]
1.01 mg/cm^2/h	CC(=O)O.CCN(CC)CCOC(=O)CCCC=CCC1C(=O)CC(O)C1C=CC(O)COc1ccccc1 (centres unmarked) [N,N-diethylaminoethyl 7-[3-hydroxy-2-(3-hydroxy-4-phenoxy-1-butenyl)-5-oxocyclopentyl]-5-heptenoate•AcOH]
0.92 mg/cm^2/h	CC(=O)O.CCN(CC)CCOC(=O)CCCC=CCC1C(O)CC(O)C1C=CC(O)COc1cccc(Cl)c1 (centres unmarked) [N,N-diethylaminoethyl 7-{2-[4-(3-chlorophenoxy)-3-hydroxy-1-butenyl]-3,5-dihydroxycyclopentyl}-5-heptenoate•AcOH]
0.86 mg/cm^2/h	CC(=O)O.CCN(CC)CCOC(=O)CCCC=CCC1C(O)CC(O)C1C=CC(O)COc1cccc(C(F)(F)F)c1 (centres unmarked) [N,N-diethylaminoethyl 7-{3,5-dihydroxy-2-[3-hydroxy-4-(3-trifluoromethylphenoxy)-1-butenyl]cyclopentyl}-5-heptenoate•AcOH]
0.90 mg/cm^2/h	CC(=O)O.CCCCCC(C)(O)C=C[C@H]1C(O)CC(O)[C@@H]1CC=C=CCCC(=O)OCCN(CC)CC (some centres unmarked) [N,N-diethylaminoethyl 9,11,15-trihydroxy-15-methylprosta-4,5,13-trien-1-oate•AcOH]
0.85 mg/cm^2/h	CC(=O)O.CCCCCC(O)C=C[C@H]1C(O)CC(O)[C@@H]1CCCCCCC(=O)OCCN(CC)CC (some centres unmarked) [N,N-diethylaminoethyl 9,11,15-trihydroxyprost-13-en-1-oate•AcOH]
1.10 mg/cm^2/h	CC(=O)O.CCCCCC(O)C=C[C@H]1C(O)CC(=O)[C@@H]1CC=CCCCC(=O)OCCN(CC)CC (some centres unmarked) [N,N-diethylaminoethyl 11,15-dihydroxy-9-oxoprosta-5,13-dien-1-oate.AcOH]
0.88 mg/cm^2/h	CC(=O)O.CCCCC(C)(C)C(O)C=C[C@H]1C(O)CC(=O)[C@@H]1CCCCC=CC(=O)OCCN(CC)CC (some centres unmarked) [N,N-diethylaminoethyl 11,15-dihydroxy-16,16-dimethyl-9-oxoprosta-2,13-dien-1-oate•AcOH]

Same assay, conditions: 10% suspension in pH 7.4 phosphate buffer (0.2 M), n=5, lowest detectable flux 1 μg/cm^2/h

In vitro penetration rate (apparent flux), parent compounds	SMILES
0.001 mg/cm^2/h	CCCCC(C)(O)C/C=C/[C@H]1[C@H](O)CC(=O)[C@@H]1CCCCCCC(=O)OC (mixture of isomers) [Misoprostol, reference compound]
0.001 mg/cm^2/h	O=C(O)CCC/C=C\C[C@@H]1[C@@H](/C=C/[C@@H](O)COc2cccc(C(F)(F)F)c2)[C@H](O)C[C@@H]1O (racemic) [Fluprostenol, reference compound]
0.001 mg/cm^2/h	CCCCC[C@](C)(O)/C=C/[C@@H]1[C@@H](C/C=C\CCCC(=O)O)[C@@H](O)C[C@H]1O [Carboprost, reference compound]
0.001 mg/cm^2/h	O=C(O)CCC/C=C\CC1C(O)CC(O)C1/C=C/C(O)COc1cccc(Cl)c1 (centres unmarked) [Cloprostenol, reference compound]
0.001 mg/cm^2/h	CCCCC(C)(C)[C@H](O)/C=C/[C@H]1[C@H](O)CC(=O)[C@@H]1CCCC/C=C/C(=O)OC [Gemeprost, reference compound]
